Measured values from patent publication US20060180677A1, “Agricultural compositions which enhance performance of pesticides applied through drift reducing nozzles” (priority 2005, published 2006).

Experiments:
Velvetleaf = Velvetleaf control after glyphosate spray, by nozzle type and adjuvant; assay type: in vivo; conditions: 28 days after treatment with glyphosate (0.375 lb ae/ac)
Text: (§1) The numbers in this table are percent control or percent kill of the weed.

Hemp sesbania = Hemp sesbania control after glyphosate spray, by nozzle type and adjuvant; assay type: in vivo; conditions: 28 days after treatment with glyphosate (0.375 lb ae/ac)
Text: as §1

Compound: O=C(O)CNCP(=O)(O)O [glyphosate]
- Velvetleaf control, InJet 110015 Nozzle (Velvetleaf; Table 1, InJet 110015 nozzle): 85%
- Velvetleaf control, XR110015 Nozzle (Velvetleaf; Table 1): 83%
- Velvetleaf control, DR 110015 Nozzle (Velvetleaf; Table 5, DR 110015 nozzle): 90%
- Velvetleaf control, XR110015 Nozzle (Velvetleaf; Table 5): 87%
- Hemp sesbania control, InJet 110015 Nozzle (Hemp sesbania; Table 2, InJet 110015 nozzle): 20%
- Hemp sesbania control, XR110015 Nozzle (Hemp sesbania; Table 2): 41%
- Hemp sesbania control, DR 110015 Nozzle (Hemp sesbania; Table 6, DR 110015 nozzle): 50%
- Hemp sesbania control, XR110015 Nozzle (Hemp sesbania; Table 6): 67%
